Test results taken from patent US6696441B1, “Inhibition of p53-induced stress response” (The Regents of the University of California, priority 2000, dated 2004).

Columns and labels:
[1] = Cyclization of PFT-α to IBT in DMSO stock diluted with water, reversed phase HPLC at 25° C. over time; assay type: physicochemical
Protocol: (§1) The preparation of PFT-α was accomplished as shown in Scheme 1 by reacting 4-methyl-2-bromoacetophenone with 2-amino-4,5,6,7-tetrahydro-benzothiazole. Upon recrystallization of the PFT-α from isopropyl alcohol, it was noticed that PFT-α readily ring-closed completely to the imidazo[2,1-b]benzothiazole (IBT). Therefore, a subsequent investigation was undertaken to study the propensity of PFT-α to ring-close in protic solvents. […] Thus, PFT-α was dissolved in DMSO and water dilutions were made from this stock.

[2] = Ring closure of PFT-α in protic solvents at room temperature; assay type: physicochemical
Protocol: as §1

[3] = nmr time course of PFT-α in DMSO-d6; assay type: physicochemical; conditions: time course in DMSO-d6, proton nmr
[4] = system: malignant lymphocytes from two patients with chronic lymphocytic leukemia [CLL]; experiment: Effect on B-CLL viability (PI exclusion by FACS, MTT); assay type: cell-based, human; conditions: 3 days culture; viable cells by PI FACS and MTT; concentrations up to 100 micromolar; FIG. 1
Excerpt: (§2) The malignant lymphocytes from two patients with chronic lymphocytic leukemia [CLL] were isolated by ficoll-hypaque sedimentation and suspended at a density of 1 million cells per milliliter in RPMI 1640 medium supplemented with 10% fetal bovine serum. Two hundred microliter aliquots of cells were dispersed in the wells of culture plates containing the indicated final concentrations of either PFT-α (“PFT-open”) or IBT (PFT-closed). After 3 days culture, viable cells were enumerated by fluorescence-activated cell sorting [FACS] after staining with propidium iodide [PI]. Viable cells excluded the dye [open circles]. In addition, cell metabolism was assessed by the ability of the cells to […] the tetrazolium dye MTT [closed squares].

[5] = system: Chronic lymphocytic leukemia [CLL] cells; experiment: Protection against spontaneous apoptosis and apoptosis induced by fludarabine (PI negative and DiOC6 high cells by FACS); assay type: cell-based, human; conditions: one micromolar, 3 days culture, FIG. 2; for effect on untreated CLL cells (spontaneous apoptosis): PI negative and DiOC6 high cells
Excerpt: as §2
Chronic lymphocytic leukemia [CLL] cells were cultured for 3 days as described in Example 2. Some of the cultures were supplemented with one micromolar of PFT-open or PFT-closed, as indicated. In the experiment shown in the bottom panel of FIG. 2, some of the cultures also contained the cytotoxic adenine nucleoside analog fludarabine [abbreviated F-AraA]. Fludarabine is the first line treatment for CLL, and the toxicity of the drug is dependent upon the p53 pathway. To assess healthy, viable cells, staining was done with both PI, as indicated in Example 2, and with the mitochondrial dye DiOC6. Cells that were both PI negative and DIOC6 high were enumerated by FACS.

[6] = system: mice; conditions: cited from earlier work

## Cc1ccc(C(=O)Cn2c3c(sc2=N)CCCC3)cc1 [PFT-α]
[1]; Time 0 h
  % cyclized to IBT: 5%
[1]; Time 18 h
  % cyclized to IBT: 28%
[1]; Time 48 h
  % cyclized to IBT: 42%
[2]
  propensity to ring-close in protic solvents: begins cyclizing at room temperature immediately upon dissolution in protic solvents
[3]
  conversion of PFT-α to IBT: spontaneous conversion of PFT-α to IBT
[4]
  CLL survival / toxicity: dose-dependently reduced CLL survival
[5]
  effect on untreated CLL cells (spontaneous apoptosis): nearly equivalent effects
[6]; 6-8 Gy of gamma radiation
  protection from lethal genotoxic stress: protected mice from lethal genotoxic stress
[6]
  promotion of tumor formation: without itself promoting the formation of tumors

## Cc1ccc(-c2cn3c4c(sc3n2)CCCC4)cc1 [IBT]
[4]
  CLL survival / toxicity: non-toxic
[5]
  effect on untreated CLL cells (spontaneous apoptosis): nearly equivalent effects
[5]; with F-AraA, compared with PFT-α
  protective effect on CLL cells treated with F-AraA (fludarabine): less protective effects
